Source: US11578343B2, “CAS9 proteins including ligand-dependent inteins” (President and Fellows of Harvard College, priority 2014, dated 2023)

What was measured:
Type in all cases: cell-based, human
CLTA genomic site = experiment: T7 Endonuclease I Surveyor assay of genomic modification; conditions: FIG. 2
Description: (§1) The presence of two bands corresponding to smaller DNA fragments (the fragments are approximately the same size for EMX) indicates genomic modification.
(§2) 4-HT (1 μM) was added during transfection for +4-HT samples. 12 hours after transfection the media was replaced. 60 hours after transfection, cells were trypsinized and genomic DNA was isolated using the DNAdvance kit (Agencourt). […] PCR products were purified with a QIAquick PCR Purification Kit (Qiagen) and quantified with a Quant-iT PicoGreen dsDNA Kit (Life Technologies). 200 ng of purified PCR DNA was then combined with 2 μL of NEBuffer 2 (NEB) in a total volume of 19 μL and denatured then re-annealed with thermocycling at 95° C. for 5 min, 95-85° C. at 2° C./s, 85-20° C. at 0.2° C./s. The re-annealed DNA was incubated with 1 μL of T7 Endonuclease I (10 U/μL, NEB) at 37° C. for 15 min. 10 μL of 50% glycerol was added to the T7 Endonuclease reaction and 15 μL was analyzed on a 5% TBE 18-well Criterion PAGE gel (Bio-Rad) electrophoresed for 30 min at 200V and stained with EtBr for 15 min.

VEGF genomic site = experiment: as above; conditions: FIG. 2
Description: as §1, §2

EMX genomic site = experiment: as above; conditions: FIG. 2
Description: as §1, §2

genomic EGFP locus = experiment: Genomic EGFP disruption in HEK293-GFP stable cells (loss of GFP by flow cytometry); conditions: for Loss of GFP expression / nuclease activity, in words: with or without 1 μM 4-HT, FIG. 3c
Description: HEK293-GFP stable cells were transfected with the Cas9 expression plasmid, a gRNA (targeting Emerald GFP; Guilinger et al., Nature Biotechnology (2014)), and iRFP670 (transfection control), using Lipofectamine 2000. Twelve hours after transfection, media, either containing 4-HT (1 μM) or without 4-HT, was added.
Five days after transfection, cells were trypsinized and analyzed on a flow cytometer. Cells lacking GFP indicated genome modification. Cas9 variants that induced minimal genome modification in the absence of 4-HT but induce significant genome modification in the presence of 4-HT were deemed small-molecule-regulated variants in this Example.
Additionally, a time course was performed in which incubation with 4-HT was limited to 2, 4, 8, 12 or 24 hours, after which point the media was replaced.
We genetically inserted the 4-HT-dependent intein at each of fifteen positions in Cas9 (Cys80, Ala127, Thr146, Ser219, Thr333, Thr519, Cys574, Thr622, Ser701, Ala728, Thr995, Ser1006, Ser1154, Ser1159, and Ser1274), chosen to distribute the location of the intein across the structural domains of Cas9^23 (FIG. 3b and Example 1). Because intein splicing leaves behind a single Cys residue, the intein was inserted in place of one Cas9 amino acid in each of the 15 candidate constructs. In addition to replacing natural Cys amino acids, we also favored replacing Ala, Ser, or Thr residues to minimize the likelihood that the resulting Cys point mutation resulting from protein splicing would disrupt Cas9 activity. The 15 intein-Cas9 candidates were expressed in HEK293-GFP cells together with a sgRNA that targets the genomic EGFP locus in these cells. Twelve hours post-transfection, cells were treated with or without 1 μM 4-HT. Five days post-transfection, cells were analyzed on a flow cytometer for loss of GFP expression from Cas9-mediated EGFP cleavage and subsequent non-homologous end joining.
Modification of genomic GFP. HEK293-GFP stable cells (GenTarget), which constitutively express Emerald GFP, served as the reporter cell line. Cells were maintained in “full serum media”: Dulbecco's Modified Eagle's Media plus GlutaMax (Life Technologies) with 10% (vol/vol) FBS and penicillin/streptomycin (1×, Amresco). 5×10^4 cells were plated on 48-well collagen-coated Biocoat plates (Becton Dickinson). 16-18 h after plating, cells were transfected with Lipofectamine 2000 (Life Technologies) according to the manufacturer's protocol. Briefly, 1.5 μL of Lipofectamine 2000 was used to transfect 650 ng of total plasmid: 500 ng Cas9 expression plasmid, 125 ng sgRNA expression plasmid, and 25 ng near-infrared iRFP670 expressing plasmid (Addgene plasmid 45457)^26. 12 h after transfection, the media was replaced with full serum media, with or without 4-HT (1 μM, Sigma-Aldrich T176). The media was replaced again 3-4 days after transfection. Five days after transfection, cells were trypsinized and resuspended in full serum media and analyzed on a C6 flow cytometer (Accuri) with a 488-nm laser excitation and 520-nm filter with a 20-nm band pass. Transfections and flow cytometry measurements were performed in triplicate.

[1] = +4-HT 2 hrs, then media replaced, Table 2
[2] = +4-HT 4 hrs, then media replaced, Table 2
[3] = +4-HT 8 hrs, then media replaced, Table 2
[4] = +4-HT 12 hrs, then media replaced, Table 2
[5] = +4-HT 24 hrs, then media replaced, Table 2
[6] = +4-HT (1 μM, added 12 h after transfection), five days after transfection, Table 1
[7] = −4-HT, five days after transfection, Table 1

Substance	Genomic modification of target site (T7E1 gel) (CLTA genomic site; +4-HT (1 μM))	Genomic modification of target site (T7E1 gel) (CLTA genomic site; absence of 4-HT)	Genomic modification of target site (T7E1 gel) (VEGF genomic site; +4-HT (1 μM))	Genomic modification of target site (T7E1 gel) (VEGF genomic site; absence of 4-HT)	Genomic modification of target site (T7E1 gel) (EMX genomic site; +4-HT (1 μM))	Genomic modification of target site (T7E1 gel) (EMX genomic site; absence of 4-HT)	Cells without GFP (%) (genomic EGFP locus; [1])	Cells without GFP (%) (genomic EGFP locus; [2])	Cells without GFP (%) (genomic EGFP locus; [3])	Cells without GFP (%) (genomic EGFP locus; [4])	Cells without GFP (%) (genomic EGFP locus; [5])	Cells without GFP (%) (genomic EGFP locus; [6])	Loss of GFP expression / nuclease activity, in words (genomic EGFP locus; listed as C574)	Cells without GFP (%) (genomic EGFP locus; [7])	Cells without GFP (%) (genomic EGFP locus; −4-HT, time course, Table 2)	Loss of GFP expression / nuclease activity, in words (genomic EGFP locus; listed as 5219)
intein(Cys574)-Cas9: Cas9 with 37R3-2 intein replacing Cys574 (SEQ ID NO: 33)	comparable to modification by wild-type Cas9	some background cleavage	comparable to modification by wild-type Cas9	minimal or no modification	comparable to modification by wild-type Cas9	minimal or no modification	14.57	13.11	16.91	16.10	14.52	21.44	4-HT-dependent loss of GFP expression and high activity in the presence of 4-HT and low activity in the absence of 4-HT	5.74	2.91	–
intein(Ser219)-Cas9: Cas9 with 37R3-2 intein replacing Ser219 (SEQ ID NO: 30)	comparable to modification by wild-type Cas9	some background cleavage	comparable to modification by wild-type Cas9	minimal or no modification	comparable to modification by wild-type Cas9	minimal or no modification	17.25	17.07	15.12	15.28	24.39	23.98	–	6.53	3.92	4-HT-dependent loss of GFP expression and high activity in the presence of 4-HT and low activity in the absence of 4-HT
